Paper PMC8490515, “Neuromedin B receptor stimulation of Cav3.2 T-type Ca^2+ channels in primary sensory neurons mediates peripheral pain hypersensitivity” (Theranostics, 2021)

Legend:
nociceptive reflex = settings: intrathecal injection; ref [4], [5]; cited from earlier work
Excerpt: Neuromedin B (Nmb) is a highly conserved and non-glycosylated polypeptide in mammals initially purified from porcine spinal cord that serves as a neuromodulator by paracrine or autocrine mechanisms. Nmb receptor (NmbR), which is located predominantly (but not exclusively) in peripheral tissues and organs and the central nervous system in mammals, has been identified as an endogenous receptor for Nmb. Acting through this receptor, Nmb mediates several behavioural effects and performs various biological functions, including regulating food intake, smooth muscle contraction, body temperat ...

[1] = test system: voltage-gated Na^+ channels (Nav); assay: Whole-cell voltage-gated Na+ channel currents in TG neurons; format: cell-based, mouse; settings: 100 nM
Procedure: All the procedures performed in this study were carried out in accordance with NIH guidelines and were approved by the Institutional Animal Care and Use Committee of Soochow University. TG neurons were dissociated as previously described, [23]. Briefly, TGs were harvested from 8- to 10-week-old ICR mice of either sex, cut into small pieces and treated with 2 mg/mL collagenase D (Roche) for 20 min followed by 1.5 mg/mL trypsin (Sigma) at 37 °C for 15 min. Cells were dissociated via gentle trituration with fire-polished sterilized Pasteur pipettes and centrifuged through a 15% BSA gradient to remove debris and nonneuronal cells. TG neurons were resuspended in neurobasal A (Thermo Fisher) supplemented with B27 (Thermo Fisher) and transferred onto Matrigel-coated coverslips. Patch clamp recordings were conducted 2 to 6 h after plating. In shRNA-treated knockdown experiments, TG cells were replated onto coverslips 48 h after infection.
Standard whole-cell recordings were made at room temperature (22-23 °C) as described previously, [25]. Recording electrodes were pulled from borosilicate glass microcapillary tubes (Sutter Instruments) and had resistances from 3 to 5 MΩ when filled with internal solution. Recordings were obtained using a MultiClamp 700B amplifier (Axon Instruments). […]

## Neuromedin B [Nmb]
Nociceptive reflex
  nociceptive reflex responses: elicits nociceptive reflex responses
[1]
  effect on whole-cell Nav currents: did not affect
